Data as given in patent US20110002995A1, “PHARMACEUTICAL COMPOSITION FOR THE TREATMENT AND PREVENTION OF CARDIAC DISEASE” (MAZENCE INC., priority 2007, published 2011).

Columns and labels:
[1] = system: TAC-induced heart hypertrophy; assay: Inhibitory effect on heart hypertrophy, TAC model (Experimental Example 1); type: in vivo, C57BL/6J male mice
Description: (§1) 8-week-old C57BL/6J male mice (n=40, 20-23 g, SLC, Japan) were purchased and subjected to transverse aortic constriction (TAC).
(§2) The thorax was incised and the thymus was removed.
(§3) 5 weeks after the operation of TAC for the heart failure model, a difference of a fractional shortening (F.S) value (%) with the control group was confirmed using echocardiogram, and the degree of heart failure induction and therapeutic effects were then determined.
(§4) Further, left ventricular end-diastolic and systolic diameters were measured according to the standard method of the American Society for Echocardiography. Fractional shortening (%) which is an indicator of the ventricular contractility is calculated according to the following equation.
(§5) F.S=(left ventricular end-diastolic diameter)−(left ventricular end-systolic diameter)/left ventricular end-diastolic diameter
(§6) Among compounds of Formula 1, inhibitory effects of 7,8-dihydro-2,2-dimethyl-2H-naphtho(2,3-b)dihydropyran-7,8-dione (hereinafter, referred to as “MB660”) on heart hypertrophy and heart failure were examined.
(§7) 2 days after TAC treatment, animals were given test samples. Induction of heart hypertrophy was carried out over 2 weeks after TAC treatment. Induction of heart failure was carried out over 5 weeks after TAC treatment.

[2] = system: TAC-induced heart failure; assay: Inhibitory effect on heart failure, TAC model (Experimental Example 1); type: in vivo, C57BL/6J male mice
Description: as §1, §2, §3, §4, §5, §6, §7

[3] = system: TAC-induced heart hypertrophy; assay: Reversal of heart hypertrophy, TAC model (Experimental Example 2); type: in vivo, C57BL/6J male mice; conditions: 150 mg/kg for 4 weeks, starting 2 weeks after TAC
Description: as §1, §2, §3, §4, §5
(§8) In order to measure effects of MB660 on the reversal of heart hypertrophy and heart failure, the experiment was carried out as follows.
(§9) After induction of heart hypertrophy (2 weeks after TAC treatment) and heart failure (5 weeks after TAC treatment), animals were given test samples for 4 weeks.

[4] = system: TAC-induced heart failure; assay: Reversal of heart failure, TAC model (Experimental Example 2); type: in vivo, C57BL/6J male mice; conditions: 150 mg/kg for 4 weeks, starting 5 weeks after TAC
Description: as §1, §2, §3, §4, §5, §8, §9

[5] = system: TAC-induced heart hypertrophy; assay: Changes of heart size in heart hypertrophy model (Experimental Example 4); type: in vivo, C57BL/6J male mice; conditions: 150 mg/kg orally for two weeks from one week after TAC, heart excised three weeks after TAC, FIG. 15
Source text: as §2
In order to examine changes of heart size in response to the administration of MB660, experimental animals were divided into four groups as given in Table 4 below:
One week after TAC treatment, animals were orally given MB660 for two weeks. Three weeks after TAC treatment, animals were sacrificed and the heart was excised, followed by size examination.

[6] = system: cardiomyocytic mitochondria, TAC-induced heart hypertrophy; assay: Mitochondrial changes of cardiomyocytes in heart hypertrophy model (Experimental Example 5); type: in vivo, C57BL/6J mice; conditions: orally for 4 weeks after induction of heart hypertrophy (2 weeks after TAC), transmission electron microscope, FIG. 16
Source text: (§10) Animals were orally given test samples for 4 weeks after induction of heart hypertrophy (2 weeks after TAC treatment) and heart failure (5 weeks after TAC treatment). The left ventricular myocardial tissues of animals were fixed in 2.5% glutaraldehyde to prepare tissue sections, and mitochondrial morphological changes were examined under a transmission electron microscope.
(§11) In C57BL/6J mice with TAC-induced heart hypertrophy and heart failure, alterations in cardiomyocytic mitochondria in response to the administration of MB660 were observed.

[7] = system: cardiomyocytic mitochondria, TAC-induced heart failure; assay: Mitochondrial changes of cardiomyocytes in heart failure model (Experimental Example 5); type: in vivo, C57BL/6J mice; conditions: orally for 4 weeks after induction of heart failure (5 weeks after TAC), transmission electron microscope, FIG. 17
Source text: as §10, §11

[8] = system: TAC-induced heart hypertrophy; conditions: FIG. 14
Source text: For the operation of TAC, C57BL/6 male mice were anesthetized with an intraperitoneal injection of a liquid anesthetic (ketamine:xylazine=20:1, kg/ml), and a 22-gauge IV catheter needle was placed into the trachea, followed by connection with a ventilator (Harvard Apparatus) for artificial forcible respiration. The thorax was incised and the thymus was removed. Following the removal of the thymus, the transverse aorta between the right subclavian artery and the left subclavian artery was banded (7-0, silk) with an overlaying blunted 27-gauge needle, and then the needle was quickly removed to create a defined constriction. The thorax was sutured with (5-0) silk to complete the surgery, and respiration of animals was then confirmed.
A ratio of heart weight (HW) to body weight (BW) (HW/BW ratio) and a ratio of heart weight (HW) to tibia length (HW/TL ratio) were respectively estimated using echocardiogram.
2 days after the operation of TAC, animals were orally given test samples for 2 weeks.

CC1(C)CCc2cc3c(cc2O1)=CC(=O)C(=O)C=3 [MB660, 7,8-dihydro-2,2-dimethyl-2H-naphtho(2,3-b)dihydropyran-7,8-dione] was tested, and the “HW/BW ratio vs non-MB660 treated TAC group” value ([1]; TAC MB(+), 150 mg/kg, given from 2 days after TAC, hypertrophy induced over 2 weeks, FIG. 1) was “significantly low value of heart hypertrophy”, the “HW/TL ratio vs non-MB660 treated TAC group” value ([1]; TAC MB(+), 150 mg/kg, given from 2 days after TAC, hypertrophy induced over 2 weeks, FIG. 2) was “significantly low value of heart hypertrophy” and the “fractional shortening vs non-MB660 treated group” value ([1]; echocardiogram, heart hypertrophy-induced model, FIG. 3) was “significant increase”. For the same compound, the “HW/BW ratio vs non-MB660 treated group” value ([2]; TAC MB(+), 150 mg/kg, given from 2 days after TAC, heart failure induced over 5 weeks, FIG. 4) was “significantly low values”, the “HW/TL ratio vs non-MB660 treated group” value ([2]; TAC MB(+), 150 mg/kg, given from 2 days after TAC, heart failure induced over 5 weeks, FIG. 5) was “significantly low values” and the “fractional shortening vs non-MB660 treated group” value ([2]; echocardiogram, heart failure-induced model) was “significantly increased”. For the same compound, the “HW/BW lower than the non-MB660 treated group” value ([3]; FIG. 7) was no less than 30%, the HW/BW value ([3]; FIG. 7) was 6.23 and the “HW/TL lower than the non-MB660 treated group” value ([3]; FIG. 8) was “about 25%”. The HW/TL value ([3]; FIG. 8) was 7.68, the “fractional shortening vs non-MB660 treated group” value ([3]; FIG. 9) was “significant increase” and the “HW/BW ratio vs control group” value ([4]; FIG. 10) was “low values”. The “HW/TL ratio vs control group” value ([4]; FIG. 11) was “low values”, the “fractional shortening vs control group” value ([4]; FIG. 12) was “significant increase” and the “heart size, TAC group vs non-administered TAC control” value [5] was “significant decrease of the heart size”. For the same compound, the “mitochondrial function/morphology of cardiomyocytes” value [6] was “returned to the original condition”, the “mitochondrial function/morphology of cardiomyocytes” value [7] was “returned to the original condition” and the “HW/BW ratio vs control group (TAC)” value ([8]; 30, 60, 100, 150 mg/kg orally for 2 weeks from 2 days after TAC) was “significant decrease”. For the same compound, the “HW/BW ratio, dependence on dose” value ([8]; 30 to 150 mg/kg orally for 2 weeks) was “generally decreased with an increasing dose” and the “HW/BW ratio at 60 mg compared to the group with 30 mg” value ([8]; orally for 2 weeks) was “increased”.
